Measurements published in the supplement of paper PMC6045584.
± gives the standard deviation of the averaged measurements.

Tests used:
[1] = compound: COc1cc2ncnc(Nc3ccc(F)c(Cl)c3)c2cc1NC(=O)/C=C/CN1CCCCC1; experiment: surviving fraction relative to DMSO-only wells; higher = less growth inhibition; details: exposure time: 5 days
In short: (§1)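 Log-phase tumour cell lines, 250–500 cells per well in 384-well plates, received inhibitors at 0.5, 1, 5, 10, 50, 100, 500 and 1000 nM continuously for five days, starting 24 hours after seeding. Viability was quantified with CellTiter-Glo luminescence and normalised to the median of DMSO-only wells to give surviving fraction. Three screens were run per line, and a line stayed in only with replicate Pearson r >0.7 and median Z' >0.3.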

XAV-939 = compound: Oc1nc(-c2ccc(C(F)(F)F)cc2)nc2c1CSCC2 [XAV-939]; experiment: as above; details: exposure time: 5 days
In short: as §1

| Test System | surviving fraction ([1]; 0.5 nM) | surviving fraction ([1]; 1 nM) | surviving fraction ([1]; 5 nM) | surviving fraction ([1]; 10 nM) | surviving fraction ([1]; 50 nM) | surviving fraction ([1]; 100 nM) | surviving fraction ([1]; 500 nM) | surviving fraction ([1]; 1000 nM) | surviving fraction (XAV-939; 0.5 nM) | surviving fraction (XAV-939; 1 nM) | surviving fraction (XAV-939; 5 nM) | surviving fraction (XAV-939; 10 nM) | surviving fraction (XAV-939; 50 nM) | surviving fraction (XAV-939; 100 nM) | surviving fraction (XAV-939; 500 nM) | surviving fraction (XAV-939; 1000 nM) |
| --- | --- | --- | --- | --- | --- | --- | --- | --- | --- | --- | --- | --- | --- | --- | --- | --- |
| HCC1395 BREAST | 0.92 ± 0.09 | 0.93 ± 0.037 | 1.08 ± 0.099 | 1.03 ± 0.036 | 1.05 ± 0.16 | 1.01 ± 0.21 | 0.896 ± 0.14 | 0.809 ± 0.15 | 0.889 ± 0.052 | 0.822 ± 0.34 | 0.987 ± 0.096 | 0.937 ± 0.25 | 0.973 ± 0.12 | 0.847 ± 0.23 | 1.04 ± 0.027 | 0.855 ± 0.14 |
| SG31 HEADNECK | 0.973 ± 0.13 | 0.87 ± 0.19 | 0.617 ± 0.16 | 0.624 ± 0.086 | 0.556 ± 0.14 | 0.519 ± 0.07 | 0.486 ± 0.1 | 0.524 ± 0.021 | 1.02 ± 0.12 | 1.13 ± 0.1 | 1.12 ± 0.28 | 1.02 ± 0.046 | 0.985 ± 0.021 | 0.853 ± 0.19 | 0.745 ± 0.055 | 0.747 ± 0.037 |
| SKBR3 BREAST | 0.879 ± 0.038 | 0.983 ± 0.089 | 0.522 ± 0.041 | 0.471 ± 0.03 | 0.195 ± 0.0032 | 0.161 ± 0.017 | 0.145 ± 0.018 | 0.105 ± 0.018 | 1.07 ± 0.17 | 0.943 ± 0.089 | 1.04 ± 0.16 | 0.898 ± 0.054 | 1.11 ± 0.065 | 1.02 ± 0.1 | 0.854 ± 0.14 | 0.772 ± 0.053 |
| MDAMB361 BREAST | 0.896 ± 0.049 | 0.909 ± 0.035 | 0.922 ± 0.052 | 0.833 ± 0.03 | 0.738 ± 0.017 | 0.745 ± 0.055 | 0.586 ± 0.019 | 0.543 ± 0.046 | 0.879 ± 0.03 | 0.906 ± 0.036 | 0.955 ± 0.045 | 0.901 ± 0.034 | 1 ± 0.02 | 0.917 ± 0.099 | 0.923 ± 0.024 | 0.874 ± 0.054 |
| ASKA SYNOVIAL | 1.11 ± 0.094 | 1.23 ± 0.051 | 1.15 ± 0.038 | 1.24 ± 0.14 | 1.3 ± 0.068 | 1.29 ± 0.04 | 0.959 ± 0.021 | 1.12 ± 0.019 | 1.15 ± 0.11 | 1.17 ± 0.098 | 1.18 ± 0.028 | 1.23 ± 0.13 | 1.2 ± 0.073 | 1.14 ± 0.065 | 0.98 ± 0.068 | 0.984 ± 0.023 |
| SG28 HEADNECK | 0.962 ± 0.064 | 0.924 ± 0.058 | 0.626 ± 0.026 | 0.54 ± 0.013 | 0.514 ± 0.029 | 0.494 ± 0.025 | 0.375 ± 0.037 | 0.238 ± 0.019 | 1.01 ± 0.11 | 1.11 ± 0.095 | 0.981 ± 0.083 | 0.967 ± 0.11 | 1.02 ± 0.14 | 0.958 ± 0.07 | 0.912 ± 0.075 | 0.91 ± 0.058 |
| SCC003 HEADNECK | 1.01 ± 0.031 | 0.95 ± 0.19 | 0.845 ± 0.11 | 0.861 ± 0.082 | 0.554 ± 0.072 | 0.535 ± 0.079 | 0.405 ± 0.053 | 0.356 ± 0.031 | 1.04 ± 0.11 | 1.07 ± 0.096 | 1.1 ± 0.052 | 1.08 ± 0.11 | 1.02 ± 0.025 | 1.07 ± 0.076 | 1.01 ± 0.12 | 1.05 ± 0.13 |
| SIHA CERVIX | 1.05 ± 0.12 | 0.994 ± 0.043 | 1.02 ± 0.082 | 1.1 ± 0.074 | 1.04 ± 0.11 | 1.06 ± 0.11 | 0.862 ± 0.055 | 0.672 ± 0.067 | 1.02 ± 0.045 | 1.05 ± 0.067 | 1.05 ± 0.084 | 1.16 ± 0.13 | 1.1 ± 0.044 | 1.19 ± 0.025 | 1 ± 0.063 | 0.974 ± 0.046 |
| SYO1 SYNOVIAL | 0.9794 ± 0.0088 | 0.993 ± 0.068 | 0.91 ± 0.023 | 0.929 ± 0.048 | 0.971 ± 0.055 | 0.974 ± 0.039 | 0.784 ± 0.018 | 0.422 ± 0.022 | 0.954 ± 0.039 | 0.998 ± 0.062 | 0.984 ± 0.028 | 0.997 ± 0.047 | 0.973 ± 0.059 | 0.879 ± 0.024 | 0.708 ± 0.044 | 0.568 ± 0.0066 |
| RDES SOFT TISSUE | 1.27 ± 0.17 | 1.28 ± 0.086 | 1.28 ± 0.059 | 1.33 ± 0.18 | 1.28 ± 0.2 | 1.23 ± 0.13 | 1.23 ± 0.15 | 1.22 ± 0.1 | 1.24 ± 0.15 | 1.3 ± 0.16 | 1.29 ± 0.21 | 1.22 ± 0.2 | 1.21 ± 0.14 | 1.18 ± 0.27 | 1.11 ± 0.11 | 1.08 ± 0.16 |
| SG43 HEADNECK | 0.807 ± 0.14 | 0.929 ± 0.044 | 0.529 ± 0.18 | 0.341 ± 0.057 | 0.199 ± 0.018 | 0.226 ± 0.022 | 0.281 ± 0.095 | 0.196 ± 0.057 | 1.07 ± 0.11 | 1.03 ± 0.07 | 0.909 ± 0.17 | 0.806 ± 0.26 | 0.744 ± 0.04 | 0.878 ± 0.17 | 0.9 ± 0.068 | 0.761 ± 0.081 |
| MCF7 BREAST | 0.908 ± 0.061 | 0.938 ± 0.022 | 0.922 ± 0.08 | 0.971 ± 0.096 | 1.01 ± 0.043 | 0.966 ± 0.034 | 1.01 ± 0.012 | 0.927 ± 0.07 | 0.941 ± 0.062 | 0.953 ± 0.07 | 0.954 ± 0.033 | 0.937 ± 0.023 | 1.01 ± 0.069 | 1.05 ± 0.041 | 1.03 ± 0.054 | 1.01 ± 0.061 |
| HELA CERVIX | 1.07 ± 0.055 | 1.07 ± 0.051 | 1 ± 0.076 | 1.04 ± 0.023 | 1.18 ± 0.038 | 1.17 ± 0.025 | 1.19 ± 0.072 | 1.13 ± 0.071 | 1.02 ± 0.066 | 1.07 ± 0.033 | 1.06 ± 0.025 | 1.08 ± 0.036 | 1.09 ± 0.059 | 1.16 ± 0.028 | 1.09 ± 0.053 | 1.1 ± 0.049 |
| VP229 BREAST | 1.02 ± 0.1 | 1.18 ± 0.056 | 0.663 ± 0.12 | 0.638 ± 0.086 | 0.306 ± 0.011 | 0.287 ± 0.026 | 0.2307 ± 0.00058 | 0.191 ± 0.029 | 1.3 ± 0.093 | 1.34 ± 0.056 | 1.37 ± 0.14 | 1.23 ± 0.045 | 1.3 ± 0.075 | 1.41 ± 0.22 | 1.33 ± 0.26 | 1.3 ± 0.075 |
| 143B BONE | 1.03 ± 0.027 | 1.006 ± 0.005 | 1.01 ± 0.067 | 1.01 ± 0.033 | 1.02 ± 0.018 | 1.01 ± 0.03 | 0.957 ± 0.016 | 0.831 ± 0.04 | 0.977 ± 0.026 | 1.02 ± 0.012 | 0.952 ± 0.14 | 1.02 ± 0.042 | 0.911 ± 0.15 | 1.03 ± 0.044 | 0.922 ± 0.069 | 1.02 ± 0.023 |
| 22RV1 PROSTATE | 1 ± 0.17 | 1.04 ± 0.099 | 0.977 ± 0.059 | 1 ± 0.087 | 1.03 ± 0.05 | 0.97 ± 0.063 | 1.02 ± 0.061 | 0.9 ± 0.045 | 1.02 ± 0.072 | 1.05 ± 0.11 | 1.03 ± 0.032 | 1 ± 0.065 | 0.934 ± 0.024 | 0.977 ± 0.024 | 1 ± 0.12 | 1.03 ± 0.096 |
